Some test systems named below: A498 renal; HCT-15 colon; HL-60(TB) leukemia; HOP-62 NSCLC; HT29 colon; IGROV1 ovarian; M14 melanoma; NCI-H23 lung; RPMI-8226 leukemia; SK-MEL-28 melanoma; TK-10 renal; HCC-2998 colon.
What all share (assay): NCI anticancer screen, dose series, 48 h

This passage reports TGI and GI50 results from PubChem BioAssay (NCI).

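Cultured in 96-well plates, cells were exposed to test compound for 48 hours across five concentrations. GI50 is the concentration that inhibits growth by half. The concentration for full growth arrest is given as TGI.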

Turning to `CC(C)(C)c1cc(-c2ccc(-c3cc(C(C)(C)C)c(O)c(C(C)(C)C)c3)cc2)cc(C(C)(C)C)c1O`, the TGI in the assay on A498 renal, in the assay with HCT-15 colon, with HL-60(TB) leukemia, with HOP-62 NSCLC, in the assay with HT29 colon and with IGROV1 ovarian was > 100 µM throughout. Further, the TGI with M14 melanoma, in the assay on NCI-H23 lung, in the assay with RPMI-8226 leukemia, in the assay with SK-MEL-28 melanoma and in the assay with TK-10 renal was > 100 µM each time.
As to `Cn1c(-c2csc(-c3ccc(Cl)cc3)n2)n[nH]c1=S`, the TGI in the assay with HCC-2998 colon is > 100 µM; in the assay on HCT-15 colon, > 100 µM; in the assay with HOP-62 NSCLC, 30.2 µM; in the assay with HT29 colon, > 100 µM; with IGROV1 ovarian, 38 µM; with M14 melanoma it was > 100 µM. Moreover, the TGI with NCI-H23 lung was 75.5 µM; in the assay on SK-MEL-28 melanoma, > 100 µM; with TK-10 renal it was 40.2 µM.
As to `CC1(C)OCC2OC3([C@H](O)CCO)OC(C)(C)OC3C2O1` (some centres undefined), the TGI in the assay on A498 renal, with HCC-2998 colon, in the assay on HCT-15 colon, with HOP-62 NSCLC, in the assay with HT29 colon and in the assay on IGROV1 ovarian was > 100 µM each time. For the same compound, the TGI in the assay with M14 melanoma, with NCI-H23 lung, in the assay on RPMI-8226 leukemia and with SK-MEL-28 melanoma was > 100 µM in each case.
Consider `N#CC1C(=O)Nc2sc(C(=O)c3ccc(Br)cc3)c(N)c2C12CCCCC2` (centres undefined), for which the TGI was 63.6 µM in the assay with A498 renal; 57.7 µM in the assay with HCC-2998 colon; > 100 µM in the assay on HCT-15 colon; > 100 µM with HOP-62 NSCLC; > 100 µM in the assay with HT29 colon; > 100 µM in the assay on IGROV1 ovarian. The TGI was 39 µM in the assay with M14 melanoma; > 100 µM with NCI-H23 lung; > 100 µM with RPMI-8226 leukemia; 47.7 µM with SK-MEL-28 melanoma; > 100 µM in the assay on TK-10 renal.
For `Oc1[nH]c2ccccc2c1N=NC1=NCCCCN1`, the TGI with A498 renal, in the assay with HCC-2998 colon, with HCT-15 colon, with HOP-62 NSCLC, in the assay with HT29 colon and in the assay on IGROV1 ovarian was > 100 µM in each case. In addition, the TGI in the assay on M14 melanoma, in the assay on NCI-H23 lung, in the assay with RPMI-8226 leukemia and in the assay with TK-10 renal was > 100 µM in each case.
Regarding `CO/N=C1\CCC2(O)C3Cc4ccc(O)c5c4C2(CCN3CC2CC2)[C@H]1O5` (some centres undefined), the TGI in the assay with A498 renal, in the assay with HCT-15 colon, in the assay with HL-60(TB) leukemia, with HOP-62 NSCLC, in the assay with HT29 colon and with IGROV1 ovarian was > 100 µM in each case. Also, the TGI in the assay with M14 melanoma, in the assay with NCI-H23 lung, in the assay on RPMI-8226 leukemia, in the assay on SK-MEL-28 melanoma and with TK-10 renal was > 100 µM each time.
Regarding `CC1=C/C(=N/N2C(=O)/C(=C/c3ccc(Cl)cc3)N=C2c2ccccc2)CC(C)(C)C1`, the TGI in the assay on A498 renal, with HCC-2998 colon, in the assay with HCT-15 colon, with HOP-62 NSCLC, with HT29 colon and with IGROV1 ovarian was > 100 µM throughout. Further, the TGI in the assay on M14 melanoma, in the assay with NCI-H23 lung, in the assay with RPMI-8226 leukemia, in the assay on SK-MEL-28 melanoma and in the assay with TK-10 renal was > 100 µM each time.
Turning to `O=c1c2cc(Br)ccc2oc2nc3n(c(=O)c12)CCCS3`, the TGI in the assay with A498 renal, in the assay with HCC-2998 colon, in the assay with HCT-15 colon, with HOP-62 NSCLC, in the assay with IGROV1 ovarian and in the assay with M14 melanoma was > 100 µM in each case. Also, the TGI in the assay on NCI-H23 lung, in the assay on RPMI-8226 leukemia, with SK-MEL-28 melanoma and with TK-10 renal was > 100 µM throughout.
As for `CN1CCN(CC(=O)Nc2ccc3ncnc(Nc4ccc(Oc5cccc(C(F)(F)F)c5)c(Cl)c4)c3c2)CC1`, the GI50 with A498 renal was 1.32 µM; with HCT-15 colon, 1.2 µM; in the assay with SK-MEL-28 melanoma, 1.71 µM; in the assay on TK-10 renal it was 1.25 µM. Also, the TGI with A498 renal came to 2.66 µM; in the assay with HCT-15 colon it was 2.52 µM; in the assay with SK-MEL-28 melanoma it was 3.16 µM; in the assay with TK-10 renal, 2.83 µM.
As to `CCCCCCCCCCCCCCCCCCNc1ccn(C2OC(COP(=O)(O)O)C(O)C2O)c(=O)n1` (centres undefined), the TGI in the assay on A498 renal, with HCC-2998 colon, in the assay with HCT-15 colon, in the assay on HOP-62 NSCLC, in the assay on HT29 colon and in the assay with IGROV1 ovarian was > 100 µM in each case. The TGI with M14 melanoma, in the assay on NCI-H23 lung, in the assay with RPMI-8226 leukemia, in the assay with SK-MEL-28 melanoma and with TK-10 renal was > 100 µM each time.
Consider `Cc1ccc(C(=O)CC(Cl)=C(Cl)Cl)cc1`, for which the TGI in the assay with A498 renal, in the assay on HCT-15 colon, with HL-60(TB) leukemia, in the assay on HOP-62 NSCLC, with HT29 colon and in the assay with IGROV1 ovarian was > 100 µM each time. Further, the TGI in the assay on M14 melanoma is > 100 µM; in the assay with NCI-H23 lung, > 100 µM; in the assay on RPMI-8226 leukemia, 74.3 µM; with SK-MEL-28 melanoma, > 100 µM; with TK-10 renal it was > 100 µM.
`CCOC(=O)c1c(C)n(Cc2ccccc2)c2c1cc(O)c1[nH]c3c(c12)CCCC3`: the TGI in the assay with HCT-15 colon was determined as 13.9 µM; in the assay with HL-60(TB) leukemia, 5.52 µM; with HOP-62 NSCLC it was 24.6 µM; in the assay with HT29 colon, 26.4 µM; in the assay on IGROV1 ovarian, 15.6 µM; in the assay with M14 melanoma, 20.9 µM. Moreover, the TGI with NCI-H23 lung turned out to be 29.9 µM; in the assay with RPMI-8226 leukemia, 4.97 µM; in the assay with SK-MEL-28 melanoma, 18.7 µM; with TK-10 renal, 23.6 µM.
Regarding `COc1ccc(CNc2nc(NCc3ccc(OC)cc3)nc(Nc3ccccc3)n2)cc1`, the TGI was > 100 µM in the assay with A498 renal; 13.5 µM in the assay with HCT-15 colon; > 100 µM in the assay with HL-60(TB) leukemia; > 100 µM in the assay with HOP-62 NSCLC; 4.1 µM with HT29 colon; > 100 µM with IGROV1 ovarian. In addition, the TGI in the assay on M14 melanoma is > 100 µM; in the assay on NCI-H23 lung, 78.5 µM; in the assay on RPMI-8226 leukemia, 40.3 µM; with SK-MEL-28 melanoma, > 100 µM; in the assay on TK-10 renal it was > 100 µM.
